Reference: patent US20240261224A1, “FORMULATION OF A PAN-JAK INHIBITOR” (KINASET THERAPEUTICS, INC., priority 2022, published 2024)
Several values for one entry are separate records, joined by “and”; a condition that tells them apart may be missing. Equal entries are not always repeated. Where two headings read alike, the source gives them in different places.

Experiments:
[1] = system: serum eosinophil count; assay: Phase 1 Part 3 serum (whole blood) differential eosinophil count; format: in vivo, human; details: 4 mg BID
Description: Whole blood hematology samples were collected prior to dosing in all patients at Day 1 (baseline) and on Day 10. Parameters including whole blood absolute and percent differential eosinophil count were determined and the resultant data was used to determine change from baseline, mean change from baseline, and mean placebo-corrected change from baseline (Compound I vs placebo).

[2] = system: rat; assay: 13-week inhalation toxicology study, rat model; format: in vivo; details: for AUC0-24: rat, in vivo, inhaled or intranasal
Description: (§1) Lactose/MgSt-based formulations of Compound I were evaluated during a 13-week inhalation toxicology study using a rat model.
(§2) The NOAEL was assigned to the highest dose study (11.9 mg/kg/day).

[3] = 13-week inhalation toxicology study, rat model; format: in vivo; details: in vivo, inhaled or intranasal, rat; for AUC(0-t): AUC0-24
Description: as §1, §2

[4] = Phase 1 Part 3 plasma pharmacokinetics (moderate to severe asthma); format: in vivo, human; details: 4 mg BID; for AUC(0-t) / AUC(0-inf) / AUC / Cmax: human, plasma, inhaled, 4 mg
Description: Part 3 involved the administration of a single dose regimen (4 mg BID), to subjects (17 active:6 placebo) with moderate to severe asthma treated with background ISC/LABA therapy, over a 10-day period. Blood samples were collected to enable the measurement of KN-002 concentrations in plasma. The resultant data was used to determine the pharmacokinetic parameters at Day 10 representing the Day on which the final dose was received.

[5] = biological target: T1, JAK3 (Homo sapiens, UniProt P52333); details: cited from earlier work
T1 sequence (P52333 1-1124): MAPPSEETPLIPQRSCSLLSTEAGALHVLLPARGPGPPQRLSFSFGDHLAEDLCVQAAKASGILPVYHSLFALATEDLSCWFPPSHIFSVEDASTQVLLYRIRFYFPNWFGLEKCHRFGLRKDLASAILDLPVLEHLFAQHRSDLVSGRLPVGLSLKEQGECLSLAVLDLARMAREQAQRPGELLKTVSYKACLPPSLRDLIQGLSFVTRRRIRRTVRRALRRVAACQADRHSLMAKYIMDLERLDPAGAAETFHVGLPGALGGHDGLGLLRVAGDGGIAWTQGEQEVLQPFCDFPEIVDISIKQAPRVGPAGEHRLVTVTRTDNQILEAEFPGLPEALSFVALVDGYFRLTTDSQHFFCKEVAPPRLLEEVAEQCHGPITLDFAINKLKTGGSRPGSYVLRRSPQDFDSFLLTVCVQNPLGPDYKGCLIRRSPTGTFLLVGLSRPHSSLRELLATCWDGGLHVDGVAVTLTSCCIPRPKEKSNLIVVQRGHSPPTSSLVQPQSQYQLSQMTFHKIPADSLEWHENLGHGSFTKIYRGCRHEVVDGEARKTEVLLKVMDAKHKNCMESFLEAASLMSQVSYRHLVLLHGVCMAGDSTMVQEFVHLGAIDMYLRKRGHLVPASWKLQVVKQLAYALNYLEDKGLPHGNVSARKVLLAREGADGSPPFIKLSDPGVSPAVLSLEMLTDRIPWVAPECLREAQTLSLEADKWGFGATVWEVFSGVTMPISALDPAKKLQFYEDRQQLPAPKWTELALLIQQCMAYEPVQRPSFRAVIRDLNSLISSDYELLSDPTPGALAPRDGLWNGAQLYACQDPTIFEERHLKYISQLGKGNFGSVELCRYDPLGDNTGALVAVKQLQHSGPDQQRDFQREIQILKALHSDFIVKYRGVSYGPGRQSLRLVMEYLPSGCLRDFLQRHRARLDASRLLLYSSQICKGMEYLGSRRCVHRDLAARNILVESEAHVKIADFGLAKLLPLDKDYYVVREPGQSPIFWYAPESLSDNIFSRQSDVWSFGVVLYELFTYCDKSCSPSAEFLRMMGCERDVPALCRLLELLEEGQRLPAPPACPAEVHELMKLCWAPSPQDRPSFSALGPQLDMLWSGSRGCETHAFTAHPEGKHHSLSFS

[6] = biological target: JAK2 (Homo sapiens, UniProt O60674); details: cited from earlier work
[7] = Day 10, Mean of active subjects (n = 6)
[8] = Day 10, individual active subjects 13026, 13027, 13038, 13073, 13095, 13097 (c1-c6)

Sequence of JAK2 (O60674 whole entry): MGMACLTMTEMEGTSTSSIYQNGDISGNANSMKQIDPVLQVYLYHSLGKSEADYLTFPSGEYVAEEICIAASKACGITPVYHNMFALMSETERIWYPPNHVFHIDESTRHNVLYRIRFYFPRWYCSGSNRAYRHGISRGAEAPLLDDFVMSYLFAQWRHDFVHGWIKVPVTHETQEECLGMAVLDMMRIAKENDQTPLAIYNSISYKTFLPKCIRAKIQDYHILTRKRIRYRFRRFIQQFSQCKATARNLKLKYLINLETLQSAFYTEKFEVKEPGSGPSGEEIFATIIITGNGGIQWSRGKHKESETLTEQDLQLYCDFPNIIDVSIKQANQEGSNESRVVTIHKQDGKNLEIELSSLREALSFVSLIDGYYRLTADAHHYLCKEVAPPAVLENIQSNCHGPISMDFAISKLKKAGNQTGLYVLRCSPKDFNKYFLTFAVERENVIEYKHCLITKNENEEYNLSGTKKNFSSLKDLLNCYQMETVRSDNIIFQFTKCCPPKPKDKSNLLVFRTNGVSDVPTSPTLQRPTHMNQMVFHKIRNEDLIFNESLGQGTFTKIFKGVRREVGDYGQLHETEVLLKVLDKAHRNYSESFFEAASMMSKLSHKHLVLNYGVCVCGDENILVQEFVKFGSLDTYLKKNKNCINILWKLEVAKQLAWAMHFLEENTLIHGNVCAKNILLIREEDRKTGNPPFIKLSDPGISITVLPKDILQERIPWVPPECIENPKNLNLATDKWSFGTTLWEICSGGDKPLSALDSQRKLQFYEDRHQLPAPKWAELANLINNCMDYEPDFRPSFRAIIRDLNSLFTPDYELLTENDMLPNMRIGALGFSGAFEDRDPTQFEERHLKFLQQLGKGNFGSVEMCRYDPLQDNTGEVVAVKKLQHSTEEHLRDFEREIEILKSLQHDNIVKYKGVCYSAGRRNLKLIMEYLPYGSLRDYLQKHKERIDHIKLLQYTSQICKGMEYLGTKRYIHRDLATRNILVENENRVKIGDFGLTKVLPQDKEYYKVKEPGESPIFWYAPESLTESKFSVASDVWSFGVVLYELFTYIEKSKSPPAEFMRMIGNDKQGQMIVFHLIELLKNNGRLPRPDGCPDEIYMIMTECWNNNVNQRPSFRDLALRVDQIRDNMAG

Cn1c(=O)n([C@H]2CCCN(C(=O)CC#N)C2)c2nc(-c3cnn4ccccc34)ccc21 [Compound I, (S)-3-(3-(1-methyl-2-oxo-5-(pyrazolo[1,5-a]pyridine-3-yl)-1H-imidazo[4,5-b]pyridine-3(2H)-yl)piperidin-1-yl)-3-oxopropanenitrile]
Active subjects with improvements (decreases) from baseline in whole blood eosinophil count ([1]; Day 10 (5/6)): 83%
Serum absolute differential eosinophil count, % Change from screening [1, 7]: −29%
Serum absolute differential eosinophil count, Change from Day 1 pre-dose [1, 7]: −0.14 cells 10^9/L
Serum absolute differential eosinophil count, Mean placebo-corrected change ([1]; Day 10, active (n = 6) vs placebo (n = 2)): −0.11 cells 10^9/L
Serum absolute differential eosinophil count, % Change from screening [1, 8]: −45% and +54% and −43% and −4% and −32% and −74%
Serum absolute differential eosinophil count, Change from Day 1 pre-dose [1, 8]: −0.30 cells 10^9/L and 0.13 cells 10^9/L and −0.13 cells 10^9/L and −0.03 cells 10^9/L and −0.14 cells 10^9/L and −0.34 cells 10^9/L
Serum absolute differential eosinophil count, Day 10 level ([1]; Mean of active subjects (n = 6)): 0.34 cells 10^9/L
Serum absolute differential eosinophil count, Day 10 level ([1]; individual active subjects 13026, 13027, 13038, 13073, 13095, 13097 (c1-c6)): 0.36 cells 10^9/L and 0.37 cells 10^9/L and 0.17 cells 10^9/L and 0.74 cells 10^9/L and 0.30 cells 10^9/L and 0.12 cells 10^9/L
AUC0-24 ([2]; 1.3 mg/kg/day): 197 ng·h/mL
AUC0-24 ([2]; 4 mg/kg/day): 738 ng·h/mL
AUC0-24 ([2]; 12 mg/kg/day): 1950 ng·h/mL
MMAD ([2]; target delivered dose 1.3 mg/kg/day (low dose)): 1.9 μm
MMAD ([2]; target delivered dose 4.0 mg/kg/day (mid dose)): 2.0 μm
MMAD ([2]; target delivered dose 12.0 mg/kg/day (high dose)): 2.1 μm
NOAEL at 13 weeks ([3]; 13-week inhalation, highest dose): 11.9 mg/kg/day
AUC(0-t) ([3]; 1.3 mg/kg/day): 339 ng·h/mL
AUC(0-t) ([3]; 4 mg/kg/day): 850 ng·h/mL
AUC(0-t) ([3]; 12 mg/kg/day): 2060 ng·h/mL
AUC0-24 hours Max ([4]; Day 10): 689,494 pg · h/ml
AUC0-24 hours Min ([4]; Day 10): 123,642 pg · h/ml
AUC0-last non-zero Max ([4]; Day 10): 886,864 pg · h/ml
AUC0-last non-zero Min ([4]; Day 10): 133,118 pg · h/ml
AUC0-∞ Max ([4]; Day 10): 887,512 pg · h/ml
AUC0-∞ Min ([4]; Day 10): 134,831 pg · h/ml
AUCover dosing interval Max ([4]; Day 10): 501,523 pg · h/ml
AUCover dosing interval Min ([4]; Day 10): 105,203 pg · h/ml
Cmax Max ([4]; Day 10): 63,800 pg/ml
Cmax Min ([4]; Day 10): 15,900 pg/ml
Ctrough Geometric mean ([4]; Day 10): 9,806 pg/ml
Ctrough Max ([4]; Day 10): 23,000 pg/ml
Ctrough Mean ([4]; Day 10): 11,153 pg/ml
Ctrough Min ([4]; Day 10): 2,490 pg/ml
AUC(0-t) ([4]; Day 10, read-out: AUC0-24 hours Geometric mean): 334 ng·h/mL
AUC(0-t) ([4]; Day 10, read-out: AUC0-24 hours Mean): 365 ng·h/mL
AUC(0-t) ([4]; Day 10, read-out: AUC0-last non-zero Geometric mean): 393 ng·h/mL
AUC(0-t) ([4]; Day 10, read-out: AUC0-last non-zero Mean): 438 ng·h/mL
AUC(0-inf) ([4]; Day 10, read-out: AUC0-∞ Geometric mean): 395 ng·h/mL
AUC(0-inf) ([4]; Day 10, read-out: AUC0-∞ Mean): 439 ng·h/mL
AUC ([4]; Day 10, read-out: AUCover dosing interval Geometric mean): 257 ng·h/mL
AUC ([4]; Day 10, read-out: AUCover dosing interval Mean): 278 ng·h/mL
Cmax ([4]; Day 10, read-out: Cmax Geometric mean): 35 ng/mL
Cmax ([4]; Day 10, read-out: Cmax Mean): 37.5 ng/mL
Inhibition of JAK3 [5]: potent inhibitor
Inhibition of JAK2 [6]: potent inhibitor
